Test results published in US20090105278A1, “Selective inhibitors of human corticosteroid syntheses” (Universitat Des Saarlandes, priority 2004, published 2009).
pIC50: −log10 of the molar value. Counter-ions that a name gives are not always drawn. Like-named read-outs stand apart in the source and are kept apart here.

Target: T1, CYP11B2 in NCI-H295R (Homo sapiens, UniProt P19099)
T1 construct: contain 5 steroidogenic CYP450 enzymes, including 17-alpha-hydroxylase, CYP11B1 and CYP11B2; endogenous in cells; host or cells: NCI-H295R
T1 sequence (P19099 25-503): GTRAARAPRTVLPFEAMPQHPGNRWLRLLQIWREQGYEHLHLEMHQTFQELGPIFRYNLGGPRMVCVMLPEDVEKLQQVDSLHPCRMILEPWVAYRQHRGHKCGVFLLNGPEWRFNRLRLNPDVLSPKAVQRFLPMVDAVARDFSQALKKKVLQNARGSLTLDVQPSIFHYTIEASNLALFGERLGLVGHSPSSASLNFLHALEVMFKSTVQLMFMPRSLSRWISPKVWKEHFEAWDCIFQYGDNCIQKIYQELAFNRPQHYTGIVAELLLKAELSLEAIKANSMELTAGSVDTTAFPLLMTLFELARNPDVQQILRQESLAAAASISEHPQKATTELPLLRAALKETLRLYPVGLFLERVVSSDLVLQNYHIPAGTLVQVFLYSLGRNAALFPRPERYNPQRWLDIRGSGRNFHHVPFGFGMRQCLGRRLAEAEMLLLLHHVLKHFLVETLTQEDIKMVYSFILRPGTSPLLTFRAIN
Assay: NCI-H295R cells, CYP11B2 inhibition (substrates corticosterone B or deoxycorticosterone DOC)
Type: cell-based
Settings: for inhibition at 2.5 µM: NCI-H295R
Protocol: For testing inhibitors, a preincubation for one hour was performed first, followed by starting the enzyme reactions by adding substrate (500 nM).
A) Seeding: The cell lines were grown and passaged until a confluent cell lawn had formed. By tryptic treatment, the cell material of at least two culture dishes was obtained, and the number of cells determined by means of a CASY TT cell counter (150 μl capillary). […] With the cell material of two confluently grown culture dishes, two 24-well plates could be coated. After 24 hours, the cells had grown on, and after another 24 hours' stimulation phase with a solution containing potassium ions (final concentration: 20 mM KCl), could be employed for the test.
In the substrate solutions for the examinations on CYP11B2, the corticosterone substrate solution (final concentration in the test: 500 nM) consisted of 38.4 μl of [1,2-^3H(N)]corticosterone (1 mCi/ml, 76.5 Ci/mmol; NEN-Perkin-Elmer) in ethanol, 39.0 μl of unlabeled corticosterone solution (0.5 mM in ethanol) and 122.6 μl of ethanol. Deoxycorticosterone, which was also employed in a final concentration of 500 nM, was composed of 18 μl of [^14C]-labeled deoxycorticosterone (60.0 mCi/mmol; 0.5 nCi/μl) in ethanol in admixture with 54 μl of unlabeled substance (0.5 mM in ethanol) and 228 μl of ethanol.
Of this solution, 5 μl each was added to the samples.
Then, the 24-well plate was stored in a CO2 incubator at 37° C. and […]. The incubation time was 3 hours when deoxycorticosterone was used as the substrate, 24 Hours for corticosterone, and 48 hours for deoxycortisol.
Test stop: After elapse of the incubation times, the plates were briefly swung, and then the content of the wells was removed quantitatively if possible and inactivated by mixing with 1000 μl of dichloromethane in a 2 ml Eppendorf vessel. After 10 minutes of shaking, it was centrifuged for phase separation, and the […], organic phase was transferred into a 1.5 ml Eppendorf vessel.
After evaporating the solvent over night under a hood, the residue was taken up in 10 μl of chloroform and applied to the center of the concentration zone of an HPTLC plate.
For detecting the steroids on the TLC, the radiation-exposed film was scanned in the phosphoimager FLA 3000 after two days.
For the substrate corticosterone, equation 5 was valid: […]

Question: With Fc1ccc2c(c1)CC/C2=C/c1cccnc1 [Compound 5b, 3-[(Z)-(5-Fluoro-2,3-dihydro-1H-indane-1-ylidene)methyl]pyridine Hydrochloride] as the molecule, how does the pIC50 (K+ stimulation 20 mM, substrate [3H]-corticosterone (B) 500 nM, incubation 24 h, read-out: NCI-H295R CYP11B2 B [IC50]) read?
Answer: Its pIC50 is 4.77.

Question: And the inhibition at 2.5 µM (read-out: NCI-H295R CYP11B2 B % inhibition)?
Answer: Its inhibition at 2.5 µM is 6.9%.

Question: What about the inhibition at 2.5 µM (read-out: NCI-H295R CYP11B2 DOC % inhibition) of the same molecule?
Answer: Its inhibition at 2.5 µM is 89.2%.

Question: And the pIC50 (substrate [14C]deoxycorticosterone (DOC) 500 nM, incubation 3 h, read-out: NCI-H295R CYP11B2 DOC [IC50])?
Answer: The pIC50 was 6.81.
